Patent US8314255B2, “Use of phthalimide and/or sulphonamide derivatives in the treatment of diseases which require reducing the TNF- α levels and an exogenous source of nitric oxide, phthalimide derivatives, sulphonamide derivatives, and a method for obtaining a sulphonamide derivative” (priority 2007, dated 2012)

What was measured:
[1] = system: Salmonella typhimurium TA102; experiment: AMES test, mutagenic evaluation in Salmonella typhimurium TA102 strain with/without metabolic activation (S9); format: cell-based
Method: The procedure was firstly developed by (MARON, D. M. and AMES, B. N. Mut. Res. v. 113, pp. 173-215, 1983)
For this assay, Salmonella typhimurium TA100 and TA102 strains from the mutagenicity laboratory of the “Faculdade de Ciências Farmacêuticas—UNESP Araraquara” were used. Such strains have the following characteristics: (AMES, 1983)
The positive controls are mutagenic compounds specific for each strain and test condition, with 25 μL/plate of sodium azide (1.25 μg/plate) and 100 μL of mitomycin (0.5 μg/plate) being the controls for TA100 and TA102, respectively, in the absence of metabolic activation. For assays with metabolic activation, the positive control for TA100 is 50 μL 2-antramine (1.25 μg/plate) and for TA102 it is 50 μL 2-aminofluorene (1.25 μg/plate).
The preincubation method was used.
In laminar flow, Salmonella typhimurium (TA100 and TA 102) strains were inoculated individually with a platinum loop, in the respective nutrient broths and maintained at 37° C., under constant stirring (160 rpm) during 14 hours, in order to achieve a density of 1 to 2×10^9 bacteria/mL.
Different concentrations of the compounds were added into 100 μL of 0.2M phosphate buffer pH 7.4 (or 500 μL of the mixture S9 in metabolic activation assays) and incubated for 20-30 minutes at 37° C. Solutions containing the compounds had DMSO as the solvent. Thereafter, 2 mL of top agar supplemented with traces of histidine and biotin was added, homogenized and plated in glycosylated minimum medium. After solidification of the top agar, the plates were incubated for 48 hours at a 37° C. Then, the counting of the number of revertant colonies per plate was performed. All tested concentrations, positive and negative controls were run in triplicate.
After 48 hours, the revertant colonies were counted manually, and the protoCOL Colony Counter Version 3.15.630 (1998-2001) SYNBIOSIS LTD system was used for the positive control.
The final data obtained from the assay was analyzed using the statistical software Salanal (Salmonella Assay Analysis) version 1.0 from the Research Triangle Institute, RTP, North Carolina, USA. Such software allows the dose-response effect to be evaluated by means of analysis of variance (ANOVA-test F) computations between the measurement of the number of revertants at the different tested concentrations (doses) and the negative control, followed by a linear regression. The software model chosen for analyzing the data was Bernstein's (BERNSTEIN, L. et al. Mutat. Res. v. 97, p. 267-281, 1982). The slope of the straight line from the linear portion of the dose-response curve is also provided by this software and corresponds to the number of revertants induced per measurement unit of the analyzed sample.
From the results, the mutagenicity ratio (MR) was computed for each analyzed dose from each compound. MR is given by the following equation:
MR=average number of revertants per test plate (spontaneous+induced revertants) […] average number of revertants per plate of the negative control (spontaneous revertants)
The spontaneous growing means that the number of revertants which developed on the plate, regardless of being induced or not, wherein values higher or equal to 2 are considered as a positive response (VALENT, G. V. et al. Env. Toxicol. Water Quality. v. 8, p. 371-381, 1993).
The mutagenicity test with metabolic activation system was performed with a microsomal fraction S9 (S9 mix) prepared from a liver homogenizate from Sprague Dawley rats, previously treated with Aroclor 1254, acquired in the freeze-dried form.
The procedure for this assay is the same, however, instead of the buffer, 500 μL of the S9 mixture should be added.
The S9 mixture has a viability of 4 hours from preparation when put on ice. The plates are then incubated for 48 hours at 37° C. After the required time has elapsed, the counting of the revertant colonies was carried out. All tested concentrations, positive and negative controls were run in triplicate.

[2] = system: mouse ear edema induced by capsaicin; experiment: Mouse ear edema assay induced by capsaicin; format: in vivo; conditions: 300 μmol/Kg i.p., capsaicin 250 μg/ear 1 hour after administration
Method: This assay is characterized by an acute inflammatory response of the ear, with development of edema, and it was performed in order to evaluate the anti-inflammatory activity of the synthesized compounds.
In this assay, indomethacin was used as a control at 100 μmol/Kg, and the phthalimide derivatives were firstly evaluated at 300 μmol/Kg via i.p. From table 4, it can be observed that compounds IC and IE show an ear edema inhibition percentage higher than 64%. […] The other compounds, however, show a similar activity when compared to indomethacin (FIG. 01), taking into consideration the standard error.
This assay was performed using Swiss mice from both genders weighing from 18 to 30 grams. The animals were fasted for 8 hours with free access to water. This assay consists in locally administering (right ear) 20 μl of a capsaicin solution (250 μg/ear) diluted in acetone, 1 hour after the i.p. administration (diluted in 0.5% gum arabic). The left ear (control) received the carrier in which capsaicin was diluted (acetone) and the right ear received capsaicin. This assay is characterized by an acute inflammatory response of the ear, with development of edema. The animals were sacrificed and their ears were weighted to obtain the inflammation index. A biopsy (8 mm in diameter) of the ear was carried out. Next, the weights of the inflamed ears were compared against the weights of the contralateral ear (control ear) which were not treated with the phlogistic agent. The edema inhibition percentage was calculated by subtracting the ear treated with the carrier by that treated with capsaicin from each group of animals treated with the test substances, and then it was divided by the difference between the groups of the irritating agents and the control groups.

## O=C1c2ccccc2C(=O)N1CCO[N+](=O)[O-] [IB, 2-(1,3-dioxo-1,3-dihydro-2H-isoindol-2-yl)ethyl nitrate]
[1]; TA 102, +S9, 0.01 μmol/plate
  mutagenicity ratio (MR): 1.13
  number of revertants per plate: 249 ± 11.7 revertants/plate
[1]; TA 102, +S9, 0.021 μmol/plate
  mutagenicity ratio (MR): 1.22
  number of revertants per plate: 269 ± 10.6 revertants/plate
[1]; TA 102, +S9, 0.042 μmol/plate
  mutagenicity ratio (MR): 1.09
  number of revertants per plate: 239 ± 22.5 revertants/plate
[1]; TA 102, +S9, 0.085 μmol/plate
  mutagenicity ratio (MR): 1.12
  number of revertants per plate: 247 ± 21.4 revertants/plate
[1]; TA 102, +S9, 0.17 μmol/plate
  mutagenicity ratio (MR): 0.97
  number of revertants per plate: 214 ± 32 revertants/plate
[1]; TA 102, −S9, 0.01 μmol/plate
  mutagenicity ratio (MR): 1.22
  number of revertants per plate: 394 ± 30 revertants/plate
[1]; TA 102, −S9, 0.021 μmol/plate
  mutagenicity ratio (MR): 1.55
  number of revertants per plate: 452 ± 23 revertants/plate
[1]; TA 102, −S9, 0.042 μmol/plate
  mutagenicity ratio (MR): 1.25
  number of revertants per plate: 502 ± 14 revertants/plate
[1]; TA 102, −S9, 0.085 μmol/plate
  mutagenicity ratio (MR): 1.34
  number of revertants per plate: 405 ± 24 revertants/plate
[1]; TA 102, −S9, 0.17 μmol/plate
  mutagenicity ratio (MR): 1.54
  number of revertants per plate: 433 ± 35.4 revertants/plate
[2]
  Average inhibition % (ear edema): 46.55%
